{"source": "patent US10336757B2", "about": "“Treatment of neurodegenerative diseases through inhibition of HSP90” (Sloan-Kettering Institute for Cancer Research, priority 2006, dated 2019)", "key": {"[1]": {"system": "p35 and tau phosphorylation", "assay": "Five day PU-DZ8 treatment of nine-month old JNPL3 (P301L tau) mice, whole brain", "type": "in vivo", "excerpt": "Transgenic mice: Transgenic mice, JNPL3 line (59) overexpressing mutant human tau (P301L, 4R0N) were used in this study, Mice were heterozygous and on a mixed hybrid genetic background composed of C57BL/DBA2/SW, as published in ref. 59. These mice develop NFTs in the basal telencephalon, diencephalon, brainstem, and spinal cord, with severe pathology accompanied by degeneration in the spinal cord leading to dystonia, paralysis, and death in mice>12 months in age. Nine month-old male JNPL3 mice (n=2) were treated intraperitoneally with PU-DZ8 or vehicle for 5 days. Mice were sacrificed 12 h after last treatment by cervical dislocation under anesthesia.\nTo further examine the effect of Hsp90 on tau phosphorylation, we used the JNPL3 line of mice expressing mutant (P301L) tau protein (59). Genetic analyses have linked mutations in the tau gene to FTDP-17 (60, 61). Over 20 distinct pathogenic mutations have been identified, with P301L as the most common mutation in tauophaties (33). […] The tau protein in JNPL3 is predominantly human and is phosphorylated at multiple sites: T181 (AT270), S202/T205 (AT8), T212 (AT100), T231 (AT180), S262, S396/S404, S409 and 5422 (59, 62). […] The degree of p35 expression translated well into alleviation of phosphorylation. […] However, in mice where effects were more prominent and p35 expression declined to approximately 20% as compared to control, a significant effect on tau phosphorylation at S202/T205 and T212/S214 and a 50% reduction on T231 was observed. We could not detect a significant amount of tau phosphorylation at T181, site found to be hyperphosphorylated in PHF, tangles and neurofilaments (65). Again, whole brain expression of cdk5 was not affected (FIG. 3)."}, "[2]": {"assay": "Experimentally determined logP by RP-HPLC", "type": "physicochemical", "conditions": "using RP-HPLC", "excerpt": "Compounds of this type may also be provided with a degradable or cleavable linker, such that monomeric agents are provided in vivo. In this embodiment, the dimeric form need not retain activity or the ability to cross the blood brain barrier, and the nature of the linker therefore is not relevant to activity, only to the ability to form active monomeric species. In general, moderately lipophilic drugs such as PUs cross the BBB by passive diffusion. A good structural understanding for the BBB permeability is still lacking, but several parameters are believed to facilitate such behavior. Lipophilicity was the first of the descriptors to be identified as important for CNS penetration. […] The mean value for ClogP for the marketed CNS drugs is 2.5. […] The rules for molecular weight in CNS drugs have been reviewed, where small molecules may undergo significant passive lipid-mediated transport through the blood brain barrier, when the molecular mass is kept in or below a 400- to 600-Da range (90). PU-DZ8 has a MW of 512. All the QSAR equations emphasize the importance of hydrogen bonding —CNS penetration requires 5 or less hydrogen bond acceptors (91). PU-DZ8 has 4. […] PSA has been used as a predictor for BBB penetration by many investigators (92). In general, drugs aimed at the CNS tend to have lower polar surface areas than other classes (93,94). […]"}, "[3]": {"conditions": "cited from earlier work"}, "[4]": {"system": "mTau expression and phosphorylation, p35", "assay": "30 day Hsp90 inhibitor treatment of JNPL3 mice", "type": "in vivo", "conditions": "30 days", "procedure": "JNPL3 female mice 6.5 months of age were treated for 30 days, 5 day/week, with the Hsp90 inhibitor PU-DZ8 (FIG. 5) or vehicle, or sacrificed for time zero, n=4/group. Brains were divided in subcortical and cortical regions and processed using the Greenberg and Davies extraction protocol. (77) Sarkosyl soluble fractions (S1) were analyzed by WB for p35 and Hsp70, and for tau epitopes found abnormally hyperphosphorylated in AD brains such as: 5202 and T205 recognized by ATB, T181 by AT270, T231 by AT180. These are putative cdk5/p35 sites. Protein bands were normalized to Hsp90 and plotted as relative units. […].\nTo investigate whether modulation of mTau could be sustained over a longer Hsp90 inhibitor-treatment period, without being toxic to mice, JNPL3 mice were subjected for 30 days to these agents. Female JNPL3 mice 6.5 months of age (n=10) were administered i.p. vehicle (n=5) or one of the Hsp90 inhibitors, PU24FC1 (200 mg/kg) or PU-DZ8 (75 mg/kg) (n=5), on a daily, five-times per week schedule and animals were sacrificed at 8 h following the last administered dose of inhibitor. […] Furthermore, no visible internal organ damage was detected at sacrifice upon gross inspection. Both S1 and P3 fractions extracted from the subcortical brain region of these mice were analyzed for mTau expression and phosphorylation."}}}
{"compound": "CC(C)NCCCn1c(Cc2cc3c(cc2I)OCO3)nc2c(N)nc(F)nc21", "note": "[PU-DZ8]", "values": [{"measurement": "whole brain expression of cdk5", "setting": "[1]; 5 days i.p.", "result": "not affected"}, {"measurement": "compound levels in brain", "setting": "[1]; 5 days i.p., 12 h after last treatment", "result": "Pharmacologically relevant levels"}, {"measurement": "p35 expression as compared to control", "setting": "[1]; 5 days i.p., mice where effects were more prominent", "result": "approximately 20%"}, {"measurement": "reduction in p35 levels", "setting": "[1]; 5 days i.p., whole brain", "result": 50, "unit": "%"}, {"measurement": "tau phosphorylation at putative cdk5 sites S202/T205 and T212", "setting": "[1]; 5 days i.p., whole brain", "result": "significant amelioration"}, {"measurement": "phosphorylation on T212/S214 (Ab AT-100)", "setting": "[1]; at 50% reduction in p35 levels", "result": "almost completely"}, {"measurement": "tau phosphorylated at T231 (Ab AT-180)", "setting": "[1]; at a reduction by 50% in p35 expression", "result": "No significant effect"}, {"measurement": "reduction of tau phosphorylation on T231", "setting": "[1]; mice where p35 declined to approximately 20% of control", "result": 50, "unit": "%"}, {"measurement": "experimentally determined logP", "setting": "[2]", "result": 1.53}, {"measurement": "solubility", "setting": "[3]", "result": "water soluble"}, {"measurement": "toxicity (animal weight, fur appearance, appetite, posture)", "setting": "[4]; five-times per week i.p., PU24FC1 200 mg/kg or PU-DZ8 75 mg/kg", "result": "No toxicity was observed"}, {"measurement": "Tau expression and phosphorylation in S1 and P3 fractions", "setting": "[4]; subcortical brain region", "result": "significant reduction in Tau expression and phosphorylation"}, {"measurement": "p35 in S1 fraction", "setting": "[4]; subcortical brain region", "result": "p35 reduction"}]}
